Source: patent US9241951B2, “Of gastrointestinal health, immunity and performance by dietary intervention” (BIOATLANTIS LTD, priority 2009, dated 2016)

Columns and labels:
Assay type in all cases: in vivo, pig
[1] = system: MUC13; assay: Mucin gene expression in ileum and colon (qPCR), Example 5; conditions: LAM supplementation
Protocol: (§1) 21 pigs with an initial weight of 17.9±2.2 Kg were assigned to one of the 3 dietary treatments: (T1) control; (T2) basal diet+300 ppm LAM; (T3) basal diet+600 ppm LAM. Experimental feeding continued for 21 days ad libitum. Diets were formulated to have similar digestible energy (DE) (14.4 MJ/Kg) and ileal digestible lysine (12.5 g/Kg).
(§2) Ileal and colonic tissues was stabilised in RNAlater® solution and stored overnight at 4° C. The following day, RNAlater® was removed and samples were stored at −86° C. prior to RNA extraction.
(§3) Tissue samples for RNA extraction were removed from −86° C. and homogenised. 500 μl of lysis solution/2-ME was added to each sample and these were mechanically disrupted using one 5 mm stainless steel bead per sample. These were then placed in a Tissue Lyser (Qiagen) and lysates were homogenised for 3 mins and transferred to a GenElute Filtration Column (Sigma Aldrich) and RNA was extracted. 1 µg of total RNA was used for cDNA synthesis using oligo(dT)20 primer in a final reaction volume of 20 μl with Superscript™ III First-Strand synthesis system for reverse transcriptase-polymerase chain reaction (RT-PCR) (Invitrogen Life Technologies, Carlsbad, Calif.). At the last step of cDNA synthesis, treatment with E. coli RNase H (Invitrogen Corp.) was performed to digest the remaining RNA/mRNA template, resulting in the production of the single-stranded cDNA template for subsequent qRT-PCR reactions.
(§4) All porcine primers for the cytokine genes interferon gamma (IFN-γ), interleukin-1α (IL-1α), IL-6, IL-8, IL-10, IL-17, tumour necrosis factor (TNF-α), the mucin genes (MUCs 1, 2, 4, 5AC, 12, 13 and 20) and three reference genes, β-actin (ACTB), Glyceraldehyde-3-phosphate dehydrogenase (GAPDH) and Peptidylprolyl isomerase A (PPIA), were designed using Primer Express™ (PE Applied Biosystems, Foster City, Calif.) and synthesised by MWG Biotech (Milton Keynes, UK). These reference genes were previously validated for use in porcine tissue and qPCR was then carried out on the cDNA using the ABI PRISM 7900HT Fast sequence detection system for 96-well plates (Applied Biosystems, Foster City, Calif.). All samples were prepared in duplicate using SYBR Green Fast PCR Master Mix (Applied Biosystems, Foster City, Calif.), cDNA as template and specific primers for the genes selected. For each reaction 5 μl cDNA, 1.2 μl (forward and reverse primer mix, 5 μM), 10 μl Fast SYBR Green PCR Master Mix (PE Applied Biosystems, Foster City, Calif.) was added and made up to a final volume of 20 μl. The two step PCR program was as follows: 95° C. for 10 minutes for 1 cycle followed by 95° C. for 15 seconds and 60° C. for 1 minute for 40 cycles. The raw Ct values for the reference genes were converted to relative quantities using the formula Q=E ^ΔCt where E is the PCR efficiency of the assay and ^ΔCt is the value calculated for the difference between the lowest Ct value for each gene minus the Ct value of the sample in question. The relative quantities of the endogenous controls were then analysed for stability in geNorm (Vandesompele et al., 2002). The stability ‘M’ value generated by the geNorm application for the selected endogenous controls (ACTB, GAPDH and PPIA) indicated their suitability as endogenous controls for these intestinal samples. The geometric mean of the relative quantities for ACTB, GAPDH and PPIA (normalisation factor) was then calculated using geNorm. The relative quantities of each target gene were divided by the normalisation factor (obtained in geNorm) for that sample to give the final normalised relative expression.

[2] = system: MUC20; assay: as above; conditions: LAM supplementation
Protocol: as §1, §2, §3, §4

[3] = system: MUC12; assay: as above; conditions: LAM supplementation
Protocol: as §1, §2, §3, §4

[4] = system: MUC2; assay: as above
Protocol: as §1, §2, §3, §4

[5] = system: MUC4; assay: as above
Protocol: as §1, §2, §3, §4

[6] = system: MUC1; assay: as above; conditions: colon; LAM supplementation
Protocol: as §1, §2, §3, §4

[7] = system: MUC5AC; assay: as above; conditions: colon; LAM supplementation
Protocol: as §1, §2, §3, §4

[8] = system: IL-17; assay: Cytokine gene expression in unchallenged ileum and colon tissue (qPCR), Example 5; conditions: unchallenged ileum or colon tissue; LAM 300, 600 ppm
Protocol: as §1, §2, §3, §4

[9] = system: IFN-γ; assay: as above; conditions: unchallenged ileum or colon tissue; LAM 300, 600 ppm
Protocol: as §1, §2, §3, §4

[10] = system: TNF-α; assay: as above; conditions: unchallenged ileum or colon tissue; LAM 300, 600 ppm
Protocol: as §1, §2, §3, §4

[11] = system: IL-1α; assay: as above; conditions: unchallenged ileum or colon tissue; LAM 300, 600 ppm
Protocol: as §1, §2, §3, §4

[12] = Faecal pH, dry matter and faeces (diarrhoea) scoring, Example 4
From the text: One hundred and ninety two piglets were weaned at twenty four days of age, with an initial live weight of 6.4±0.785 Kg and assigned to one of four dietary treatments or 21 days post weaning. The dietary treatments consisted of (T1) basal diet, (T2) basal diet with 300 ppm LAM, (T3) basal diet with 236 ppm FUC, (T4) Basal diet with 300 ppm LAM and 236 ppm FUC. Diets were formulated to have identical concentrations of digestible energy (DE) (16 MJ/Kg) and ileal digestible lysine (14 g/Kg). All amino acid requirements were met relative to lysine (Close, 1994). Chromium III oxide was added to the diets for determination of nutrient digestibility. The LAM and FUC were derived from Laminaria hyperborea.
Piglets were housed in groups of 4 and offered feed twice daily. Water was supplied ad-libitum. Any pig displaying symptoms of illness was treated appropriately and recorded. Pigs were weighed on day 0 (day of weaning), 7, 14 and 21. Feed intake was monitored weekly. Fresh faecal samples were taken on day 10 and were analysed for E. coli and Lactobacilli concentrations. Faeces samples were collected from each pen on day 12-17 and were retained for chemical analysis. Fresh faecal samples were removed on day 14 and were frozen and retained for volatile fatty acid analysis. Fresh faecal samples were taken on day 17 for pH determination.
A scoring system was applied to indicate its presence and severity. The following scoring system was used: 1=hard, 2=slightly soft, 3=soft, partially formed, 4=loose, semi-liquid and 5=watery, mucous-like.

laminarin
MUC13 expression ([1]; colon): no effect | MUC13 expression ([1]; ileum): no effect | MUC20 expression ([2]; colon): no effect | MUC20 expression ([2]; ileum): no effect | MUC12 expression ([3]; colon): no effect | MUC12 expression ([3]; ileum): no effect | MUC2 expression ([4]; colon, LAM 600 ppm): significantly increased | MUC2 expression ([4]; ileum, LAM 300 ppm relative to control animals): increase | increased MUC2 expression ([4]; ileum, LAM 600 ppm): not observed | MUC4 expression ([5]; colon, LAM 600 ppm): significantly increased | MUC4 expression ([5]; ileum, LAM supplementation): no effect | MUC1 expression [6]: no effect | MUC5AC expression [7]: no effect | IL-17 gene expression [8]: no effects | IFN-γ gene expression [9]: no effects | TNF-α gene expression [10]: no effects | IL-1α gene expression [11]: no effects | faecal DM content ([12]; LAM supplemented diets (300 ppm) v unsupplemented (26.24), in % (unit assumed)): 28.64 | faecal score ([12]; days 0-21, compared to the basal diet): no effect | faecal score ([12]; days 7-14, scale 1 (hard) to 5 (watery), LAM supplemented diets v 2.57): 2.05
